For series [1] the following is noted: cited from earlier work; for logP (Log P of organic acid, Calculated) / logP of organic acid (calc.) / Log P of organic acid (calc.): organic acid itself; for logP (calc.): basic drug itself, value published in PubMed; for log P: lipid solubility of the named drug or organic acid itself.
The nature of series [2]: Evaluation test of transdermal absorbability (skin penetrability) with a Franz diffusion cell. It is filed as in vitro ADME. Conditions: free basic drug, liquid preparation 2 w/w %, rat skin, 32° C.
For series [3] the following is noted: stated in brackets in the synthesis examples; cited from earlier work.
The nature of series [4]: State of the liquid preparation (precipitation, homogeneity, solubility or dispersion of the salt).
Setting [5] is: wrapped cell, full remark: tendency of salt to be divided into two layers.

Read-outs that look alike come from different tables or passages of the source.

Consider `CC(=O)Oc1ccccc1C(=O)O` [acetylsalicylic acid], for which the “logP (Log P of organic acid, Calculated)” value in series [1] (value from PubMed) is 1.4.
Take `CN(C)CCCN1c2ccccc2CCc2ccccc21` [imipramine]: the “Penetrated Amount (amount of skin-penetrated drug during 3 hours)” value (shortened to “Penetrated Amount”) in series [2] came out at 10 μg/cm^2.
In the case of `CC(C)CCCCCCCCCCCCCCC(=O)O` [isostearic acid], the “logP of organic acid (calc.)” value in series [1] is recorded as 7. In addition, in series [1] (value from PubMed), the “Log P of organic acid (calc.)” value is recorded as 7; the “logP (Log P of organic acid, Calculated)” value is given as 7; the “logP of organic acid (calc.)” value was 7.
Turning to `O=C(O)c1ccccc1O` [salicylic acid], in series [1] (value from PubMed), the “Log P of organic acid (calc.)” value is 2.4; the “logP (Log P of organic acid, Calculated)” value is on record as 2.4; the “logP of organic acid (calc.)” value is recorded as 2.4.
Take `CN(C)CCC=C1c2ccccc2CCc2ccccc21` [amitriptyline, reference compound]: the “Penetrated Amount” value in series [2] came to 7 μg/cm^2. Further, in series [1], the “logP (calc.)” value is 4.9 and the “log P” value is recorded as 4.9.
For the compound `CC(=O)NCC(=O)O` [N-acetylglycine], the “logP of organic acid (calc.)” value in series [1] is listed as −3.1. Also, the “Log P of organic acid (calc.)” value in series [1] (value from PubMed) is listed as −3.1.
Regarding `CC(C)=CCN1CCC2(C)c3cc(O)ccc3CC1C2C` (stereo not drawn) [pentazocine, reference compound], the “Penetrated Amount” value in series [2] came to 40 μg/cm^2. Besides, in series [1], the “logP (calc.)” value is reported as 3.7 and the “log P” value is given as 3.7. Moreover, in series [3], the pKa is 8.0.
As for `CCc1ccc(C(=O)C(C)CN2CCCCC2)cc1` (stereo not drawn) [eperisone, reference compound], the “Penetrated Amount” value in series [2] is reported as 14 μg/cm^2. Moreover, in series [1], the “logP (calc.)” value is 3.6.
For `Cc1ccc(C(=O)C(C)CN2CCCCC2)cc1` (stereo not drawn) [tolperisone, reference compound], the “Penetrated Amount” value in series [2] is on record as 26 μg/cm^2. Moreover, the “logP (calc.)” value in series [1] is 3.1.
Turning to `O=C(O)c1ccc(O)cc1` [p-hydroxybenzoic acid], the “logP (Log P of organic acid, Calculated)” value in series [1] (value from PubMed) is 1.2.
For `CCCCC(CC)C(=O)O` (stereo not drawn) [2-ethylhexanoic acid], the “logP (Log P of organic acid, Calculated)” value in series [1] (value from PubMed) is listed as 2.7.
Take `CC(O)C(=O)O.CCN(CC)CC(=O)Nc1c(C)cccc1C` [Lactic acid salt of lidocaine, lactic acid salt of lidocaine]: the “Remarks, Test Example 7: 2% liquid preparation (solvent system)” value in series [4] (wrapped cell, full remark: homogeneously dispersed solution) is given as “homogeneously”. Besides, in series [4] (setting [5]), the “Remarks, Example 13: 20% viscous liquid preparation (liquid paraffin)” value is reported as “tendency of salt to” and the “Remarks, Example 14: 20% viscous liquid preparation (solvent + liquid paraffin)” value was “tendency of salt to”.
Regarding `COc1cccc(C2(O)CCCCC2CN(C)C)c1` (stereo not drawn) [tramadol, reference compound], in series [2], the “Penetrated Amount” value was 122 μg/cm^2. In series [1], the “logP (calc.)” value is recorded as 2.4 and the log partition coefficient (log P) is 2.4.
As to `COCC(=O)O` [methoxyacetic acid], the “logP of organic acid (calc.)” value in series [1] is −0.6. Further, in series [1] (value from PubMed), the “Log P of organic acid (calc.)” value is listed as −0.6; the “logP (Log P of organic acid, Calculated)” value is −0.6; the “logP of organic acid (calc.)” value is on record as −0.6. Moreover, the “Remarks (state of the liquid preparation)” value in series [4] (morphine 2 w/w % liquid preparation with the row's acid, wrapped cell 'small amount of' + 'precipitation' = small amount of white precipitation remained) is “homogeneous solution”.
With `CC(O)CC(=O)O` (stereo not drawn) [3-hydroxybutyric acid], in series [1] (value from PubMed), the “logP (Log P of organic acid, Calculated)” value is given as −0.5.
On to `CCC(=O)O` [propionic acid], for which, in series [1] (value from PubMed), the “Log P of organic acid (calc.)” value is reported as 0.2 and the “logP of organic acid (calc.)” value is 0.2.
Regarding `CCCCCCCC(=O)O` [octanoic acid], the “logP of organic acid (calc.)” value in series [1] and in series [1] (value from PubMed) was 3 each time. Further, the “Log P of organic acid (calc.)” value in series [1] (value from PubMed) was 3.
Turning to `CC(=O)CCC(=O)O` [levulinic acid], in series [1], the “logP of organic acid (calc.)” value is −0.4. For the same compound, in series [1] (value from PubMed), the “Log P of organic acid (calc.)” value is reported as −0.4; the “logP (Log P of organic acid, Calculated)” value was −0.4; the “logP of organic acid (calc.)” value is −0.4.
